Data from PMC5626944 (Frontiers in Pharmacology, 2017).

Columns and labels:
Opioid, Delta 2 (h) = experiment: NovaScreen competition binding; design: species or system human; conditions: 1 µM
Adenosine, A2A (h) = system: T1, Adenosine, A2A (h); experiment: NovaScreen competition binding; design: species or system human; conditions: 1 µM
T1 construct: PerkinElmer – Caliper Life Sciences (NovaScreen service)

Muscarinic, M5 (h) = experiment: NovaScreen competition binding; design: species or system human; conditions: 1 µM
[1] = system: T2, Kinase, Protein, PKCa (h); experiment: NovaScreen enzyme assay; format: biochemical, human; conditions: 1 µM
T2 construct: PerkinElmer – Caliper Life Sciences (NovaScreen service)

[2] = system: Potassium Channel, Ca2+ Act., VI; experiment: NovaScreen competition binding; conditions: 1 µM
α6β2* nAChRs = α6β2* nAChRs (Mus musculus, UniProt Q9ERK7+Q9R0W9); experiment: [125I]epibatidine binding, striatal membranes from α4KO mice; design: from tissue; host or cells: striatal membranes from α4KO mice
Protocol: Brain membrane preparations were stored as pellets under buffer at -70°C or used immediately.

Serotonin, 5HT1D = experiment: NovaScreen competition binding; conditions: 1 µM
[3] = biological target: Glutamate,NMDA,Glycine (Stry-insens Site) (Ionot (Rattus norvegicus, UniProt P35439)); experiment: NovaScreen competition binding
[4] = system: Calcium Channel, Type L (Dihydropyridine Site); experiment: NovaScreen competition binding; conditions: 1 µM
Adrenergic, Alpha 2A (h) = system: T3, Adrenergic, Alpha 2A (h); experiment: NovaScreen competition binding; design: species or system human; conditions: 1 µM
T3 construct: PerkinElmer – Caliper Life Sciences (NovaScreen service)

Histamine, H2 = system: T4, Histamine, H2; experiment: NovaScreen competition binding; conditions: 1 µM
T4 construct: PerkinElmer – Caliper Life Sciences (NovaScreen)

[5] = system: Glutamate, Kainate Site (Ionotropic); experiment: NovaScreen competition binding; conditions: 1 µM
[6] = system: T5, Phosphodiesterase, PDE4A1A (h); experiment: NovaScreen enzyme assay; format: biochemical, human; conditions: 1 µM
T5 construct: PerkinElmer – Caliper Life Sciences (NovaScreen service)

male Wistar rats = experiment: Rat responding for food rewards; format: in vivo; conditions: 0.01, 0.025, 0.05, 0.08 mg/kg ip, 20 min before session
Text: Operant chambers (Med Associates, East Fairfield, VT, United States) were used for food delivery and the intravenous self-administration (IVSA) of nicotine.
For IV catheter implantation, the rats were anesthetized using 1–3% isoflurane inhalation in oxygen and surgically prepared with catheters in the left jugular vein ([Kenny et al., 2008]). The catheter was passed subcutaneously to a polyethylene assembly mounted on the animals’ back. Prior to training, rats were food-restricted so that their body weight was approximately ∼85% that of free-feeding rats. They were then trained to press an active lever for 45 mg food pellets on a fixed ratio 5 time-out 20 s (FR5TO20) schedule of reinforcement. […] Pressing this lever was recorded but was not associated with scheduled consequence. Rats were permitted to respond for food rewards until a reliable response was achieved, defined as >90 pellets earned per 1 h session for three consecutive sessions. Rats were then permitted to respond for food (n = 8) or for nicotine infusions (n = 9) during 1 h daily sessions under the FR5TO20 schedule. […]
Twenty min after injection, rats were placed in the operant boxes and responding for food rewards or nicotine infusions was recorded. […]

Dopamine Transporter = experiment: NovaScreen competition binding; conditions: 1 µM
GABA A, Agonist Site = experiment: NovaScreen competition binding; conditions: 1 µM
α3β4* nAChRs [7] = biological target: T6, α3β4* nAChRs (Mus musculus, UniProt Q8R493+Q8R4G9); experiment: [125I]epibatidine binding, IPN membranes from β2KO mice
T6 construct: from tissue
Protocol: The methods used for preparing brain membranes in hypotonic buffer have been described previously ([Marks et al., 1998], [2007]). Brain membrane preparations were stored as pellets under buffer at -70°C or used immediately. We followed previously published methods for [^125I]epibatidine binding and analysis ([Grady et al., 2010]).

WT mice = experiment: Marble burying assay; format: in vivo, mouse; conditions: 0.3 mg/kg ip
α3β4* nAChRs [8] = biological target: T6, α3β4* nAChRs; experiment: [3H]ACh release from interpeduncular nucleus synaptosomes; format: biochemical; conditions: IPN synaptosomes
Protocol: Regions of interest were dissected from fresh mouse brains and homogenized in ice-cold isotonic sucrose (0.32 M), buffered with HEPES (5 mM, pH 7.5). The suspension was centrifuged at 12,000 × g for 20 min. The pellet was re-suspended in the appropriate uptake buffer ([Grady et al., 2001]; [Salminen et al., 2004]; [Marks et al., 2006]) and used immediately.
Previously published methods for [^3H]ACh release from crude IPN synaptosomes were followed ([Grady et al., 2001]). Agonist-stimulated ^86Rb^+ efflux from synaptosomes was measured using previously described methods ([Marks et al., 1999], [2007]).

[9] = system: T7, Phosphodiesterase, PDE5A1 (h); experiment: NovaScreen enzyme assay; format: biochemical, human; conditions: 1 µM
T7 construct: PerkinElmer – Caliper Life Sciences (NovaScreen service)

[10] = system: Glutamate, NMDA, Phencyclidine Site (Ionotropic); experiment: NovaScreen competition binding; conditions: 1 µM

T6 sequence (Q8R4G9 26-499): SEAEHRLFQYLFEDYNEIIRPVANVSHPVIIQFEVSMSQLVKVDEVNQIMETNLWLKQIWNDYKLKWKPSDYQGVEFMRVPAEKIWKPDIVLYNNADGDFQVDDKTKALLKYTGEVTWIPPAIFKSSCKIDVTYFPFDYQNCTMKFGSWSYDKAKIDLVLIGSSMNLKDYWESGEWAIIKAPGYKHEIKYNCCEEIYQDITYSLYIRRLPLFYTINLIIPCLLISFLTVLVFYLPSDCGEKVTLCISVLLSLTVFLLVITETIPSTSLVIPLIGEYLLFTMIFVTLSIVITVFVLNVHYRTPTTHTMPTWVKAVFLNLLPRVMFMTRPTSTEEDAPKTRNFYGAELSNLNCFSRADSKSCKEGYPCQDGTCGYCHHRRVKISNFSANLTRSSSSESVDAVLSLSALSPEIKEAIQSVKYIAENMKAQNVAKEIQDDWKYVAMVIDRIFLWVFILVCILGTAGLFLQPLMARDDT
T6 sequence (Q8R493 21-495): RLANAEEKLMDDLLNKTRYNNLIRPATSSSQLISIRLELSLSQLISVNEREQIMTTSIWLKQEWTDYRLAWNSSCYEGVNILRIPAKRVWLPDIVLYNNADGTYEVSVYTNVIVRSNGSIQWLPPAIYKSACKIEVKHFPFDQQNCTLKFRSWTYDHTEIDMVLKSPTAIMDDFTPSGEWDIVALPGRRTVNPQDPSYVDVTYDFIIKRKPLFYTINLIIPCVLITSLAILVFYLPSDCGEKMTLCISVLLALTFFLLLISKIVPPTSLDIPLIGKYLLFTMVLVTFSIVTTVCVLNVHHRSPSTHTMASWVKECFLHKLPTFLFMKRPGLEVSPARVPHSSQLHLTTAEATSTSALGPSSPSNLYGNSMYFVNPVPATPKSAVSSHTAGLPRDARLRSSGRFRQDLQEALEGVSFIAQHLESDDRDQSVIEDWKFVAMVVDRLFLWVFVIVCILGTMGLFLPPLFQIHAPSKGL
Chain of Glutamate,NMDA,Glycine (Stry-insens Site) (Ionot (P35439 394-863 limits assumed): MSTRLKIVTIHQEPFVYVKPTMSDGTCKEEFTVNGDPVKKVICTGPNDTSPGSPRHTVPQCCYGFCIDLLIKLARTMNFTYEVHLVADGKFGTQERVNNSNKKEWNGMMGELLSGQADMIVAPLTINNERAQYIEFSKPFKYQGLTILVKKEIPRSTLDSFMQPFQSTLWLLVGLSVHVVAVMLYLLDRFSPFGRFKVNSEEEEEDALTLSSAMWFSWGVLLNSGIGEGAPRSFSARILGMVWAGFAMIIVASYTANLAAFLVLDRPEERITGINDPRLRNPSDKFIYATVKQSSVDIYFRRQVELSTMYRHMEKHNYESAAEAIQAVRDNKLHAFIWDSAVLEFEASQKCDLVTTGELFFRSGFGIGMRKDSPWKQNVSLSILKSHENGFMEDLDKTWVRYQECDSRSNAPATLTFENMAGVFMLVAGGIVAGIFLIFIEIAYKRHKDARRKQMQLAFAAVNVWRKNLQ
Chain of α6β2* nAChRs (Q9ERK7 26-501): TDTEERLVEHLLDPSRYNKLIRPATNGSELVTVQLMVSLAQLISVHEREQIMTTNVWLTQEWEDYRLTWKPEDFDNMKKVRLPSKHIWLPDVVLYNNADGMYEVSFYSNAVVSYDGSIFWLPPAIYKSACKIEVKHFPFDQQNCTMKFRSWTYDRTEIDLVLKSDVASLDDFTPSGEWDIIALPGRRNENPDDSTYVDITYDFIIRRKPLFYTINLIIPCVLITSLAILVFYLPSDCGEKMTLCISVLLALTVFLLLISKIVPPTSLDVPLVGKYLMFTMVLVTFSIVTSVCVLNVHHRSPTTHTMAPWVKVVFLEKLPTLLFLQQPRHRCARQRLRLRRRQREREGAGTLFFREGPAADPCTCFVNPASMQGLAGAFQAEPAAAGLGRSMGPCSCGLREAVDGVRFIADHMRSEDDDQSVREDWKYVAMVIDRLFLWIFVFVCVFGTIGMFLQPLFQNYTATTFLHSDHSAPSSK
Chain of α6β2* nAChRs (Q9R0W9 31-494): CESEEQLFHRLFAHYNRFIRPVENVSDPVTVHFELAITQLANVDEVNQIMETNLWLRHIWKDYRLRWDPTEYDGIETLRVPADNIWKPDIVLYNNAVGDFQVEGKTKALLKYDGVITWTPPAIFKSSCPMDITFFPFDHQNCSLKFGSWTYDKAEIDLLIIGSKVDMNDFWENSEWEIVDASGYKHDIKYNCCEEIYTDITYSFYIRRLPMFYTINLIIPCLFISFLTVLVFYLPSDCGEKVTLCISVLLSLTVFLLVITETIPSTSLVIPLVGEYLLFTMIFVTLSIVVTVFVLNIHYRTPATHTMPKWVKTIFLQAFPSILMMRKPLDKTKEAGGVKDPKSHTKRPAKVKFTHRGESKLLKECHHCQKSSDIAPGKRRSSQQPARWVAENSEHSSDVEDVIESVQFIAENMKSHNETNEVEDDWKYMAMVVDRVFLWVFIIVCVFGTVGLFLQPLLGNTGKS

Question: How did the Hit (Opioid, Delta 2 (h)) turn out when `C1=C(/c2cncnc2)CCCNCC/1` [TC299423, (E)-5-(pyrimidin-5-yl)-1,2,3,4,7,8-hexahydroazocine] was run?
Answer: The Hit was “FALSE”.

Question: What about the Inhibition (Opioid, Delta 2 (h); [3H]-Naltrindole) of the same molecule?
Answer: Its Inhibition is -2.12%.

Question: And the Hit (Adenosine, A2A (h))?
Answer: Its Hit is “FALSE”.

Question: What about the Inhibition (Adenosine, A2A (h); [3H]CGS 21680) of the same molecule?
Answer: Its Inhibition is 1.51%.

Question: And the Hit (Muscarinic, M5 (h))?
Answer: The Hit was “FALSE”.

Question: And the Inhibition (Muscarinic, M5 (h); [3H]Scopolamine, N-Methyl)?
Answer: The Inhibition was 2.24%.

Question: What about the Hit [1] of the same molecule?
Answer: The Hit was “FALSE”.

Question: What about the Inhibition ([1]; substrate Fluorescein-labeled peptide) of the same molecule?
Answer: Its Inhibition is -1.00%.

Question: What about the Hit [2] of the same molecule?
Answer: The Hit was “FALSE”.

Question: What about the Inhibition ([2]; [125I]Apamin) of the same molecule?
Answer: The Inhibition was -2.57%.

Question: What about the Ki (α6β2* nAChRs; α4KO striatal membranes) of the same molecule?
Answer: The Ki was 1.4 ± 0.6 nM.

Question: What about the “Difference between Ki ([125I]epibatidine) and EC50 ([3H]dopamine release)” value (α6β2* nAChRs; α6β2* nAChRs) of the same molecule?
Answer: Its value is roughly 20 fold.

Question: And the Hit (Serotonin, 5HT1D)?
Answer: The Hit was “FALSE”.

Question: What about the Inhibition (Serotonin, 5HT1D; [3H]5-CT) of the same molecule?
Answer: The Inhibition was 9.99%.

Question: And the Hit ([3]; 1 µM)?
Answer: The Hit was “FALSE”.

Question: What about the inhibition at 1 µM ([3]; [3H]-MDL-105,519) of the same molecule?
Answer: The inhibition at 1 µM was 4.34%.

Question: And the Hit [4]?
Answer: The Hit was “FALSE”.

Question: What about the Inhibition ([4]; [3H]Nitrendipine) of the same molecule?
Answer: Its Inhibition is -3.91%.

Question: What about the Hit (Adrenergic, Alpha 2A (h)) of the same molecule?
Answer: The Hit was “FALSE”.

Question: What about the Inhibition (Adrenergic, Alpha 2A (h); [3H]MK-912) of the same molecule?
Answer: The Inhibition was 6.75%.

Question: And the Hit (Histamine, H2)?
Answer: The Hit was “FALSE”.

Question: And the Inhibition (Histamine, H2; [125I]-Aminopotentidine)?
Answer: Its Inhibition is 6.50%.

Question: And the Hit [5]?
Answer: Its Hit is “FALSE”.

Question: And the Inhibition ([5]; [3H]Kainic acid)?
Answer: Its Inhibition is -6.93%.

Question: What about the Hit [6] of the same molecule?
Answer: Its Hit is “FALSE”.

Question: And the “Responding for food pellets vs vehicle” value (male Wistar rats)?
Answer: Its value is “no statistically significant changes”.

Question: And the Hit (Dopamine Transporter)?
Answer: Its Hit is “FALSE”.

Question: What about the Inhibition (Dopamine Transporter; [3H]WIN 35,428) of the same molecule?
Answer: The Inhibition was -5.87%.

Question: And the Hit (GABA A, Agonist Site)?
Answer: Its Hit is “FALSE”.

Question: What about the Inhibition (GABA A, Agonist Site; [3H]GABA) of the same molecule?
Answer: The Inhibition was -2.66%.

Question: And the Ki (α3β4* nAChRs [7])?
Answer: The Ki was 18 ± 0.7 nM.

Question: And the “Marbles buried compared with saline” value (WT mice)?
Answer: The value was “significantly fewer marbles”.

Question: And the “Marbles buried compared with varenicline” value (WT mice; p < 0.001)?
Answer: The value was “fewer marbles”.

Question: And the EC50 (α3β4* nAChRs [8]; read-out: Neurotransmitter release EC50 (converted))?
Answer: The EC50 was 8000 nM.

Question: What about the Emax (α3β4* nAChRs [8]; relative to nicotine, read-out: Neurotransmitter release % Efficacy) of the same molecule?
Answer: The Emax was 100 ± 16%.

Question: And the Hit [9]?
Answer: The Hit was “FALSE”.

Question: And the Inhibition ([9]; substrate Fluorescent cyclic GMP)?
Answer: The Inhibition was -3.00%.

Question: What about the Hit [10] of the same molecule?
Answer: Its Hit is “FALSE”.

Question: What about the Inhibition ([10]; [3H]TCP) of the same molecule?
Answer: The Inhibition was 7.71%.
